For 2 compounds, MIC results are on record in ChEMBL document CHEMBL3297661, “1-Substituted-5-[(3,5-dinitrobenzyl)sulfanyl]-1H-tetrazoles and their isosteric analogs: A new class of selective antitubercular agents active against drug-susceptible and multidrug-resistant mycobacteria” (Eur J Med Chem, 2014).

The assay has as its system Mycobacterium tuberculosis. The assay is described as follows: Antimycobacterial activity against Mycobacterium tuberculosis H37Rv. The class given is functional.

Converted amounts (≈) assume the structure as drawn.

For `C[C@]1(COc2ccc(N3CCC(Oc4ccc(OC(F)(F)F)cc4)CC3)cc2)Cn2cc([N+](=O)[O-])nc2O1` [DELAMANID], the minimal inhibitory concentration (MIC) amounted to 0.02 µM (≈ 10.7 ng/mL).

Regarding `C[C@H]1COC2(CCN(c3nc(=O)c4cc(C(F)(F)F)cc([N+](=O)[O-])c4s3)CC2)O1` [BTZ-043], the MIC is 0.0023 µM (≈ 0.992 ng/mL).
